From patent publication US3962282A, “Juvenile hormone mimics” (priority 1974, dated 1976)

What was measured:
[1] = tested on: Tenebrio molitor pupae; experiment: topical application to Tenebrio molitor pupae, maturation inhibition; format: in vivo
Excerpt: (§1) The compounds were applied in acetone solution at concentrations of 10 percent, 1 percent and 0.5 percent. One microliter of the acetone solution was applied to each test specimen. Ten test specimens were employed for each insect at each concentration and compared to ten acetone controls and ten zero controls. Approximately eight to ten days were required before results could be ascertained.
(§2) The insect species used in the test were Tenebrio molitor pupae; milkweed bug, fourth nymphal stage; wax moth, fifth larval stage; and Mexican bean beetle, fourth larval stage. At the completion of the test, each specimen was examined for the degree of juvenile and adult characteristics. The milkweed bug, wax moth, and Mexican bean beetle were assigned a numerical rating of 0 to 3 with 0 indicating no effect and 3 indicating the maximum effect or least adult development. Because of differences in morphology the Tenebrio rating scale was 0 to 4. In all cases a rating of 2 or higher means that the insect is incapable of reproduction. The number of specimens in each rating classification are given. In any test were the total of specimens reported is less than 10, those unreported died in some metamorphic stage. Such deaths indicate control, since the dead insects are not capable of reproducing.

[2] = tested on: housefly larvae; experiment: topical application to housefly larvae; format: in vivo, Musca domestica
Description: as §1
A number of compounds were tested against housefly larvae by topical application in an acetone solution using the method described above for the primary test against Tenebrio, milkweed bug, wax moth, and Mexican bean bettel. The results with the first compound are reported on a scale of 0 to 3 with 0 indicating a normal adult, 1 indicating an adult with deformed wings, 2 indicating a partially emerged adult, and 3 indicating no evidence of emergence. The results for the other compounds are reported onn a scale of 0 to 2 with 0 indicating a normal adult, 1 indicating a partially emerged adult and 2 indicating no evidence of emergence.

[3] = tested on: milkweed bug; experiment: topical application to milkweed bug, fourth nymphal stage, maturation inhibition; format: in vivo; settings: rating scale 0-3
Excerpt: as §1, §2

[4] = tested on: wax moth; experiment: topical application to wax moth, fifth larval stage, maturation inhibition; format: in vivo
Excerpt: as §1, §2

[5] = tested on: Mexican bean beetle; experiment: topical application to Mexican bean beetle, fourth larval stage, maturation inhibition; format: in vivo
Excerpt: as §1, §2

[6] = 10% in acetone, 1 microliter topical, rating scale 0 (no effect) to 3 (maximum)
[7] = 10% in acetone, 1 microliter topical, rating scale 0 (no effect) to 4 (maximum)

CC(=CCCc1ccc2c(c1)OCO2)CCC1OC1(C)C (stereo not drawn) [9-(3,4-methylenedioxyphenyl)-2,6-dimethyl-2,3-epoxy-6-nonene]
number of specimens in rating 4 ([1]; 0.5%, rating scale 0-4): 10 specimens | number of specimens in rating 0 ([1]; 1%, rating scale 0-4): 1 specimens | number of specimens in rating 4 ([1]; 1%, rating scale 0-4): 9 specimens | number of specimens in rating 4 ([1]; 10%, rating scale 0-4): 10 specimens | number in rating 2 (no evidence of emergence) ([2]; 1%, scale 0-2): 10 | number in rating 2 (no evidence of emergence) ([2]; 10%, scale 0-2): 10 | number of specimens in rating 1 ([3]; 0.5%): 2 specimens | number of specimens in rating 2 ([3]; 0.5%): 4 specimens | number of specimens in rating 1 ([3]; 1%): 5 specimens | number of specimens in rating 3 ([3]; 1%): 2 specimens | number of specimens in rating 3 ([3]; 10%): 7 specimens

CC(C)=CCC/C(C)=C/CCc1ccc(Cl)c(Cl)c1 [trans-2,6-dimethyl-9-(3,4-dichlorophenyl)-2,6-nonadiene]
number of specimens in rating 0 ([4]; 0.5%, rating scale 0-3): 10 specimens | number of specimens in rating 0 ([4]; 1%, rating scale 0-3): 10 specimens | number of specimens in rating 0 [4, 6]: 10 specimens | number of specimens in rating 0 ([1]; 0.5%, rating scale 0-4): 10 specimens | number of specimens in rating 0 ([1]; 1%, rating scale 0-4): 10 specimens | number of specimens in rating 0 [1, 7]: 10 specimens | number in rating 0 (normal adult) ([2]; 0.5%, scale 0-3): 3 | number in rating 2 (partially emerged adult) ([2]; 0.5%, scale 0-3): 1 | number in rating 3 (no evidence of emergence) ([2]; 0.5%, scale 0-3): 6 | number in rating 0 (normal adult) ([2]; 1%, scale 0-3): 8 | number in rating 3 (no evidence of emergence) ([2]; 1%, scale 0-3): 2 | number in rating 0 (normal adult) ([2]; 10%, scale 0-3): 5 | number in rating 3 (no evidence of emergence) ([2]; 10%, scale 0-3): 5 | number of specimens in rating 0 ([5]; 0.5%, rating scale 0-3): 10 specimens | number of specimens in rating 0 ([5]; 1%, rating scale 0-3): 10 specimens | number of specimens in rating 0 [5, 6]: 6 specimens | number of specimens in rating 1 ([5]; 10%, rating scale 0-3): 1 specimens | number of specimens in rating 2 ([5]; 10%, rating scale 0-3): 1 specimens | number of specimens in rating 3 ([5]; 10%, rating scale 0-3): 2 specimens | number of specimens in rating 3 ([3]; 0.5%): 10 specimens | number of specimens in rating 3 ([3]; 1%): 10 specimens | number of specimens in rating 3 ([3]; 10%): 10 specimens

CC(C)=CCC/C(C)=C\CCc1ccc(Cl)cc1 [cis-9-(4-chlorophenyl)-2,6-dimethyl-2,6-nonadiene]
number in rating 0 (normal adult) ([2]; 0.5%, scale 0-2): 3 | number in rating 1 (partially emerged adult) ([2]; 0.5%, scale 0-2): 3 | number in rating 2 (no evidence of emergence) ([2]; 0.5%, scale 0-2): 3 | number in rating 0 (normal adult) ([2]; 1%, scale 0-2): 2 | number in rating 1 (partially emerged adult) ([2]; 1%, scale 0-2): 2 | number in rating 2 (no evidence of emergence) ([2]; 1%, scale 0-2): 4 | number in rating 1 (partially emerged adult) ([2]; 10%, scale 0-2): 2 | number in rating 2 (no evidence of emergence) ([2]; 10%, scale 0-2): 6

CC(=CCCc1ccc2c(c1)OCO2)CCCC(C)C [2,6-DIMETHYL-9-(3,4-METHYLENEDIOXYPHENYL)-6-NONENE]
number of specimens in rating 0 ([4]; 0.5%, rating scale 0-3): 9 specimens | number of specimens in rating 1 ([4]; 0.5%, rating scale 0-3): 1 specimens | number of specimens in rating 0 ([4]; 1%, rating scale 0-3): 9 specimens | number of specimens in rating 1 ([4]; 1%, rating scale 0-3): 1 specimens | number of specimens in rating 0 [4, 6]: 10 specimens | number of specimens in rating 0 ([1]; 0.5%, rating scale 0-4): 3 specimens | number of specimens in rating 1 ([1]; 0.5%, rating scale 0-4): 1 specimens | number of specimens in rating 2 ([1]; 0.5%, rating scale 0-4): 2 specimens | number of specimens in rating 3 ([1]; 0.5%, rating scale 0-4): 2 specimens | number of specimens in rating 4 ([1]; 0.5%, rating scale 0-4): 2 specimens | number of specimens in rating 2 ([1]; 1%, rating scale 0-4): 4 specimens | number of specimens in rating 4 ([1]; 1%, rating scale 0-4): 6 specimens | number of specimens in rating 0 [1, 7]: 1 specimens | number of specimens in rating 4 ([1]; 10%, rating scale 0-4): 9 specimens | number of specimens in rating 1 ([5]; 0.5%, rating scale 0-3): 1 specimens | number of specimens in rating 2 ([5]; 0.5%, rating scale 0-3): 7 specimens | number of specimens in rating 3 ([5]; 0.5%, rating scale 0-3): 2 specimens | number of specimens in rating 3 ([5]; 1%, rating scale 0-3): 10 specimens | number of specimens in rating 3 ([5]; 10%, rating scale 0-3): 10 specimens | number of specimens in rating 0 ([3]; 0.5%): 5 specimens | number of specimens in rating 1 ([3]; 0.5%): 1 specimens | number of specimens in rating 3 ([3]; 0.5%): 3 specimens | number of specimens in rating 0 ([3]; 1%): 1 specimens | number of specimens in rating 3 ([3]; 1%): 8 specimens | number of specimens in rating 3 ([3]; 10%): 7 specimens
